Values of other authors, collected in US20120219529A1, “Silver ion compositions of pectins” (George H. Scherr Trust, priority 2011, published 2012).

SMILES: [Ag+].[Ag+].[O-2] [Ag2O]
- solubility in water: insoluble in water
